Reference: ChEMBL document CHEMBL1201861, “Genomics of Drug Sensitity in Cancer screening data, Wellcome Trust Sanger Institute”

Columns and labels:
COLO-741 = assay: cells; assay type: functional, cell-based, Homo sapiens
Description: SANGER: Inhibition of human COLO-741 cell growth in a cell viability assay.

DMS-273 = assay: cells; assay type: functional, cell-based, Homo sapiens
Description: SANGER: Inhibition of human DMS-273 cell growth in a cell viability assay.

GCT = assay: cells; assay type: functional, cell-based, Homo sapiens;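 further: GCT cell line proliferation inhibition, read out with a cell viability assay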
Description: SANGER: Inhibition of human GCT cell growth in a cell viability assay.

H4 = assay: cells; assay type: functional, cell-based, Homo sapiens
Description: SANGER: Inhibition of human H4 cell growth in a cell viability assay.

HCC1419 = assay: cells; assay type: functional, cell-based, Homo sapiens;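 further: growth inhibition of human HCC1419 cells, read out as cell viability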
Description: SANGER: Inhibition of human HCC1419 cell growth in a cell viability assay.

HCC1569 = assay: cells; assay type: functional, cell-based, Homo sapiens;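 further: growth inhibition of human HCC1569 cells, read out with a cell viability assay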
Description: SANGER: Inhibition of human HCC1569 cell growth in a cell viability assay.

HCC1954 = assay: cells; assay type: functional, cell-based, Homo sapiens;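 further: growth inhibition of human HCC1954 cells, read out with a cell viability assay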
Description: SANGER: Inhibition of human HCC1954 cell growth in a cell viability assay.

HSC-2 = assay: cells; assay type: functional, cell-based, Homo sapiens;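 further: growth inhibition of human HSC-2 cells, read out by a cell viability assay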
Description: SANGER: Inhibition of human HSC-2 cell growth in a cell viability assay.

IMR-5 = assay: cells; assay type: functional, cell-based, Homo sapiens;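 further: growth inhibition of human IMR-5 cells, read out with a cell viability assay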
Description: SANGER: Inhibition of human IMR-5 cell growth in a cell viability assay.

KARPAS-422 = assay: cells; assay type: functional, cell-based, Homo sapiens
Description: SANGER: Inhibition of human KARPAS-422 cell growth in a cell viability assay.

KYSE-150 cell line = assay: cells; assay type: functional, cell-based, Homo sapiens;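 further: growth inhibition of human KYSE-150 cells, read out with a cell viability assay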
Description: SANGER: Inhibition of human KYSE-150 cell growth in a cell viability assay.

KYSE-410 = assay: cells; assay type: functional, cell-based, Homo sapiens;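 further: growth inhibition of KYSE-410 cells, measured through a cell viability readout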
Description: SANGER: Inhibition of human KYSE-410 cell growth in a cell viability assay.

MDA-MB-361 = assay: cells; assay type: functional, cell-based, Homo sapiens
MKN-28 = assay: cells; assay type: functional, cell-based, Homo sapiens;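 further: cell viability assay read-out, IC50 reflects suppression of growth of human MKN-28 cells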
Description: SANGER: Inhibition of human MKN28 cell growth in a cell viability assay.

NCI-H2342 = assay: cells; assay type: functional, cell-based, Homo sapiens;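 further: growth inhibition of the cancer cell line, determined with a cell viability assay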
Description: SANGER: Inhibition of human NCI-H2342 cell growth in a cell viability assay.

NCI-H28 = assay: cells; assay type: functional, cell-based, Homo sapiens;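 further: growth inhibition of human NCI-H28 cells, read out as cell viability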
Description: SANGER: Inhibition of human NCI-H28 cell growth in a cell viability assay.

NCI-H524 = assay: cells; assay type: functional, cell-based, Homo sapiens;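 further: growth inhibition of human NCI-H524 cells, read out through a cell viability assay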
Description: SANGER: Inhibition of human NCI-H524 cell growth in a cell viability assay.

NCI-H661 = assay: cells; assay type: functional, cell-based, Homo sapiens;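 further: cell viability assay read-out, IC50 being the concentration that inhibits growth of the cells by half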
Description: SANGER: Inhibition of human NCI-H661 cell growth in a cell viability assay.

NCI-H719 = assay: cells; assay type: functional, cell-based, Homo sapiens;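 further: growth inhibition of the cultured cell line, read out with a viability assay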
Description: SANGER: Inhibition of human NCI-H719 cell growth in a cell viability assay.

NCI-H889 = assay: cells; assay type: functional, cell-based, Homo sapiens;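 further: cell growth inhibition of the cell line, read out with a viability assay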
Description: SANGER: Inhibition of human NCI-H889 cell growth in a cell viability assay.

OAW-42 = assay: cells; assay type: functional, cell-based, Homo sapiens;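 further: growth inhibition of OAW-42 cells, read out with a cell viability assay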
Description: SANGER: Inhibition of human OAW-42 cell growth in a cell viability assay.

OVCAR-8 = assay: cells; assay type: functional, cell-based, Homo sapiens;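 further: growth inhibition of human OVCAR-8 cells, read out by a cell viability assay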
Description: SANGER: Inhibition of human OVCAR-8 cell growth in a cell viability assay.

RERF-LC-MS = assay: cells; assay type: functional, cell-based, Homo sapiens;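 further: growth inhibition of human RERF-LC-MS cells, read out by a cell viability assay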
Description: SANGER: Inhibition of human RERF-LC-MS cell growth in a cell viability assay.

RMG-I = assay: cells; assay type: functional, cell-based, Homo sapiens;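 further: growth inhibition of human RMG-I cells, read out with a cell viability assay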
Description: SANGER: Inhibition of human RMG-I cell growth in a cell viability assay.

RPMI-2650 = assay: cells; assay type: functional, cell-based, Homo sapiens
Description: SANGER: Inhibition of human RPMI-2650 cell growth in a cell viability assay.

RT-112 = assay: cells; assay type: functional, cell-based, Homo sapiens
Description: SANGER: Inhibition of human RT-112 cell growth in a cell viability assay.

RVH-421 = assay: cells; assay type: functional, cell-based, Homo sapiens
Description: SANGER: Inhibition of human RVH-421 cell growth in a cell viability assay.

SBC-5 = assay: cells; assay type: functional, cell-based, Homo sapiens;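 further: cell viability assay read-out, IC50 is the concentration that inhibits growth of the cells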
Description: SANGER: Inhibition of human SBC-5 cell growth in a cell viability assay.

SCC-25 = assay: cells; assay type: functional, cell-based, Homo sapiens;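 further: growth inhibition of SCC-25 cells, measured with a cell viability assay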
Description: SANGER: Inhibition of human SCC-25 cell growth in a cell viability assay.

SCC-9 = assay: cells; assay type: functional, cell-based, Homo sapiens;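 further: Read-out is a cell viability assay, with values giving inhibition of cell growth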
Description: SANGER: Inhibition of human SCC-9 cell growth in a cell viability assay.

SJRH30 = assay: cells; assay type: functional, cell-based, Homo sapiens;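 further: growth inhibition of human SJRH30 cells, read out with a cell viability assay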
Description: SANGER: Inhibition of human SJRH30 cell growth in a cell viability assay.

SU-DHL-1 = assay: SANGER: Inhibition of human SU-DHL-1 cell growth in a cell viability assay.; assay type: functional, cell-based
SW1088 = assay: cells; assay type: functional, cell-based, Homo sapiens;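 further: growth inhibition of human SW1088 cells, read out by a cell viability assay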
Description: SANGER: Inhibition of human SW1088 cell growth in a cell viability assay.

SW1783 = assay: cells; assay type: functional, cell-based, Homo sapiens
Description: SANGER: Inhibition of human SW1783 cell growth in a cell viability assay.

SAOS-2 = assay: cells; assay type: functional, cell-based, Homo sapiens;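 further: growth inhibition of human Saos-2 cells determined by a cell viability assay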
Description: SANGER: Inhibition of human Saos-2 cell growth in a cell viability assay.

769-P = assay: cells; assay type: functional, cell-based, Homo sapiens
Description: SANGER: Inhibition of human 769-P cell growth in a cell viability assay.

786-0 = assay: cells; assay type: functional, cell-based, Homo sapiens
Description: SANGER: Inhibition of human 786-0 cell growth in a cell viability assay.

CAL-12T = assay: cells; assay type: functional, cell-based, Homo sapiens;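 further: growth inhibition of human CAL-12T cells, read out with a cell viability assay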
Description: SANGER: Inhibition of human CAL-12T cell growth in a cell viability assay.

CAL-51 = assay: cells; assay type: functional, cell-based, Homo sapiens;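 further: human CAL-51 cell line, growth inhibition read out via a cell viability assay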
Description: SANGER: Inhibition of human CAL-51 cell growth in a cell viability assay.

TE-15 = assay: cells; assay type: functional, cell-based, Homo sapiens;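 further: cell viability readout of growth inhibition in TE-15 cells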
Description: SANGER: Inhibition of human TE-15 cell growth in a cell viability assay.

TE-441-T = assay: cells; assay type: functional, cell-based, Homo sapiens
Description: SANGER: Inhibition of human TE-441-T cell growth in a cell viability assay.

U-698-M = assay: cells; assay type: functional, cell-based, Homo sapiens
Description: SANGER: Inhibition of human U-698-M cell growth in a cell viability assay.

**Q.** What does the source list for BLEOMYCIN?
**A.** IC50 (COLO-741; colo-741): 16.4 µM; IC50 (DMS-273; dms-273): 2.98 µM; IC50 (GCT; gct): 4.99 µM; IC50 (H4; h4): 0.321 µM; IC50 (HCC1419; hcc1419): 253 µM; IC50 (HCC1569; hcc1569): 0.604 µM; IC50 (HCC1954; hcc1954): 84.2 µM; IC50 (HSC-2; hsc-2): 2.47 µM; IC50 (IMR-5; imr-5): 0.137 µM; IC50 (KARPAS-422; karpas-422): 168 µM; IC50 (KYSE-150 cell line; kyse-150): 0.00265 µM; IC50 (KYSE-410; kyse-410): 8.15 µM; IC50 (MDA-MB-361; mda-mb-361): 0.719 µM; IC50 (MKN-28; mkn-28): 0.00108 µM; IC50 (NCI-H2342; nci-h2342): 0.0138 µM; IC50 (NCI-H28; nci-h28): 2.74 µM; IC50 (NCI-H524; nci-h524): 190 µM; IC50 (NCI-H661; nci-h661): 2.79 µM; IC50 (NCI-H719; nci-h719): 293 µM; IC50 (NCI-H889; nci-h889): 513 µM; IC50 (OAW-42; oaw-42): 0.832 µM; IC50 (OVCAR-8; ovcar-8): 0.000476 µM; IC50 (RERF-LC-MS; rerf-lc-ms): 48.7 µM; IC50 (RMG-I; rmg-i): 0.000132 µM; IC50 (RPMI-2650; rpmi-2650): 0.633 µM; IC50 (RT-112; rt-112): 2.32 µM; IC50 (RVH-421; rvh-421): 2.57 µM; IC50 (SBC-5; sbc-5): 0.624 µM; IC50 (SCC-25; scc-25): 0.415 µM; IC50 (SCC-9; scc-9): 403 µM; IC50 (SJRH30; sjrh30): 0.414 µM; IC50 (SU-DHL-1; su-dhl-1): 2.05 µM; IC50 (SW1088; sw1088): 818 µM; IC50 (SW1783; sw1783): 0.249 µM; IC50 (SAOS-2; saos-2): 0.172 µM; IC50 (769-P; 769-p): 0.123 µM; IC50 (786-0): 0.0808 µM; IC50 (CAL-12T; cal-12t): 0.259 µM; IC50 (CAL-51; cal-51): 0.099 nM; IC50 (TE-15; te-15): 3.22 µM; IC50 (TE-441-T; te-441-t): 24.6 µM; IC50 (U-698-M; u-698-m): 13 µM

**Q.** With `Cc1cc([N+](=O)[O-])ccc1NS(=O)(=O)c1cc(Cl)ccc1Cl` as the compound, how does the IC50 (COLO-741; Homo sapiens, COLO-741) read?
**A.** 4.49 µM

**Q.** What about the IC50 (DMS-273; Homo sapiens, DMS-273) of the same compound?
**A.** 0.719 µM

**Q.** What about the IC50 (GCT; Homo sapiens, GCT) of the same compound?
**A.** 2.93 µM

**Q.** What about the IC50 (H4; Homo sapiens, H4) of the same compound?
**A.** 2.59 µM

**Q.** And the IC50 (HCC1419; Homo sapiens, HCC1419)?
**A.** 3.89 µM

**Q.** What about the IC50 (HCC1569; Homo sapiens, HCC1569) of the same compound?
**A.** 3.48 µM

**Q.** What about the IC50 (HCC1954; Homo sapiens, HCC1954) of the same compound?
**A.** 3.62 µM

**Q.** What about the IC50 (HSC-2; Homo sapiens, HSC-2) of the same compound?
**A.** 4.56 µM

**Q.** What about the IC50 (IMR-5; Homo sapiens, IMR-5) of the same compound?
**A.** 11.2 µM

**Q.** And the IC50 (KARPAS-422; Homo sapiens, KARPAS-422)?
**A.** 8.26 µM

**Q.** And the IC50 (KYSE-150 cell line; Homo sapiens, KYSE-150)?
**A.** 5.06 µM

**Q.** What about the IC50 (KYSE-410; Homo sapiens, KYSE-410) of the same compound?
**A.** 5.83 µM

**Q.** What about the IC50 (MDA-MB-361; Homo sapiens, MDA-MB-361) of the same compound?
**A.** 3.66 µM

**Q.** And the IC50 (MKN-28; Homo sapiens, MKN-28)?
**A.** 4.37 µM

**Q.** What about the IC50 (NCI-H2342; Homo sapiens, NCI-H2342) of the same compound?
**A.** 4.93 µM

**Q.** What about the IC50 (NCI-H28; Homo sapiens, NCI-H28) of the same compound?
**A.** 8.5 µM

**Q.** And the IC50 (NCI-H524; Homo sapiens, NCI-H524)?
**A.** 12.5 µM

**Q.** And the IC50 (NCI-H661; Homo sapiens, NCI-H661)?
**A.** 2.82 µM

**Q.** What about the IC50 (NCI-H719; Homo sapiens, NCI-H719) of the same compound?
**A.** > 32 µM

**Q.** What about the IC50 (NCI-H889; Homo sapiens, NCI-H889) of the same compound?
**A.** > 32 µM

**Q.** And the IC50 (OAW-42; Homo sapiens, OAW-42)?
**A.** 2.78 µM

**Q.** What about the IC50 (OVCAR-8; Homo sapiens, OVCAR-8) of the same compound?
**A.** 4.26 µM

**Q.** What about the IC50 (RERF-LC-MS; Homo sapiens, RERF-LC-MS) of the same compound?
**A.** 1.49 µM

**Q.** What about the IC50 (RMG-I; Homo sapiens, RMG-I) of the same compound?
**A.** 11.5 µM

**Q.** What about the IC50 (RPMI-2650; Homo sapiens, RPMI-2650) of the same compound?
**A.** 1.98 µM

**Q.** And the IC50 (RT-112; Homo sapiens, RT-112)?
**A.** 6.11 µM

**Q.** And the IC50 (RVH-421; Homo sapiens, RVH-421)?
**A.** 0.931 µM

**Q.** What about the IC50 (SBC-5; Homo sapiens, SBC-5) of the same compound?
**A.** 1.61 µM

**Q.** And the IC50 (SCC-25; Homo sapiens, SCC-25)?
**A.** 10.9 µM

**Q.** And the IC50 (SCC-9; Homo sapiens, SCC-9)?
**A.** > 32 µM

**Q.** And the IC50 (SJRH30; Homo sapiens, SJRH30)?
**A.** 2.07 µM

**Q.** And the IC50 (SU-DHL-1; Homo sapiens, SU-DHL-1)?
**A.** > 32 µM

**Q.** And the IC50 (SW1088; Homo sapiens, SW1088)?
**A.** 12.3 µM

**Q.** What about the IC50 (SW1783; Homo sapiens, SW1783) of the same compound?
**A.** 7.15 µM

**Q.** And the IC50 (SAOS-2; Homo sapiens, SAOS-2)?
**A.** 6.94 µM

**Q.** What about the IC50 (769-P; Homo sapiens, 769-P) of the same compound?
**A.** 6.73 µM

**Q.** What about the IC50 (786-0; Homo sapiens) of the same compound?
**A.** 3.92 µM

**Q.** What about the IC50 (CAL-12T; Homo sapiens, CAL-12T) of the same compound?
**A.** 1.02 µM

**Q.** What about the IC50 (CAL-51; Homo sapiens, CAL-51) of the same compound?
**A.** 2750 nM

**Q.** What about the IC50 (TE-15; Homo sapiens, TE-15) of the same compound?
**A.** 2.15 µM

**Q.** What about the IC50 (TE-441-T; Homo sapiens, TE-441-T) of the same compound?
**A.** 7.31 µM

**Q.** What about the IC50 (U-698-M; Homo sapiens, U-698-M) of the same compound?
**A.** 1.81 µM
